In patent US9572760B2, “Uses of compounds and mixtures from Antrodia cinnamomea mycelia” (Simpson Biotech Co., Ltd., priority 2013, dated 2017):

Columns and labels:
B16F10 cells = assay: Melanin content in B16F10 cells after UV irradiation; assay type: cell-based, murine; details: 10 μM for 72 hrs prior to UV irradiation; UV alone 33.80±4.6% increase over non-UV cells (7.4±0.3 μg/mg protein)
Source text: The dermal fibroblast cell line CG1639 was obtained from the BCRC (Bioresource Collection and Research Center) and cultured in Dulbecco's modified Eagle media (DMEM, Gibco by Invitrogen) with 1% antibiotic antimycotic (Gibco by Invitrogen) and 15% fetal bovine serum (Gibco by Invitrogen). The fetal rat skin keratinocyte, FRSK cell line was obtained from the Japan HSRRB (Health Science Research Resources Bank) and cultured in Eagle's minimal essential media (MEM, Gibco by Invitrogen) supplemented with 10% fetal bovine serum (FBS) (Gibco by Invitrogen) and 1% antibiotic antimycotic (Gibco by Invitrogen). B16F10 cells, a murine melanoma cell line, were purchased from American Type Culture Collection (ATCC, Rockville, Md., USA) and was cultured in Eagle's Minimum Essential Medium (MEM; Sigma, St. Louis, Mo.) supplemented with 10% fetal bovine serum (FBS; HyClone Lab. Inc., Logan, Utah), 0.02% antibiotic-antimycotic liquid (penicillin, 10 000 U mL^−1; streptomycin, 10 000 μg mL^−1 and amphotericin B, 25 μg mL^−1; Invitrogen, Carlsbad, Calif.).
To investigate the induction of melanogenesis and the oxidative stress by direct UV irradiation, melanoma cells and keratocytes were irradiated with 8 J cm^−2 of UVA (FL15BLB, 352 nm, 15 W; Toshiba, Tokyo, Japan) and 10 mJ cm^−2 of UVB (G15T8E, 306 nm, 15 W; Sankyo Denki, Tokyo, Japan) in a HANKS' balanced salt solution (Sigma). The UV intensity was measured by using a Model UVX Digital Radiometer (UVP Inc., Upland, Calif.).
B16F10 and FRSK cells were exposed to Hepasim compounds A-D by two different concentrations (3 or 10 μM) for 72 hrs prior to UVA irradiation. DMEM was replaced with phosphate buffered saline (PBS) to avoid generation of medium-derived toxic photoproducts prior to UV irradiation. Cells were collected 24 hrs after UVA irradiation and assayed. For preparation of cell lysate, the harvested cells were pelleted by centrifugation and lysed in lysis buffer containing 50 mM Tris-HCl, 10 mM ethylene diaminetetraacetic acid (EDTA), 1% (v/v) Tri-ton X-100, phenylmethylsulfonyl fluoride (PMSF) (100 mg/ml) and pepstatin A (1 mg/ml) in DMSO and leupeptin (1 mg/ml) in H2O, pH 6.8. The cells were centrifuged at 10,000 rpm for 10 min and the total cell lysate was collected and stored at −80° C.
In order to measure the melanin contents, B16F10 cells were sonicated on ice and the mixture was centrifuged (25 000 g, 10 min, 4° C.). The supernatant was transferred, and pellets were dissolved in 0.85 N KOH at 60° C. for 20 min. Standard melanin (Sigma) was incubated in parallel. Spectrophotometric analysis of melanin content was then performed at an absorbance of 405 nm

hypertrophic scarring = assay: Rabbit ear model of hypertrophic scarring: scar and epidermal thickness, histology; assay type: in vivo, New Zealand white rabbits; details: for mean epidermal thickness (ETI) / mean scar thickness (SEI): 1% w/v applied to wounds every day for 14 days; for mean epidermal thickness (ETI): control 5.08±0.44; for mean scar thickness (SEI): day 14, control 3.71±0.31; for histology: dermis layer of scars: treated for 14 day, 1% w/v
Method: The rabbit ear model of hypertrophic scarring was established. In brief, 12 New Zealand white rabbits, weighing 2.5 to 3.0 kg, were prepared for wounding under sterile conditions. Four 1 cm full thickness circular wounds were created down to the cartilage on the ventral side of each ear using a 1 cm punch biopsy. The perichondrial membrane was then dissected off the cartilage using a surgical blade. The test agents including compound B, C and ACM ethanol extract were applied to the wounds of the experimental group ([…] to each wound) every day in concentrations of 1% w/v for 14 days, while the control group received equal amounts of 1% w/v saline.

Compound | melanin production in UV-irradiated B16F10 cells (B16F10 cells) | mean epidermal thickness (ETI) (hypertrophic scarring) | mean scar thickness (SEI) (hypertrophic scarring) | histology: dermis layer of scars (hypertrophic scarring)
CC(C)=CCOc1ccc(C2=C(CC(C)C)C(=O)NC2=O)cc1 [Compound B, 3-isobutyl-4-[4-(3-methyl-2-butenyloxy)phenyl]-1H-pyrrol-2,5-dione] | 29.40±4.3% | 2.23±0.31 | 1.93±0.51 | not significantly thickened
CC(C)=CCOc1ccc(C2=C(CC(C)C)C(=O)N(O)C2=O)cc1 [Compound C, 3-isobutyl-4-[4-(3-methyl-2-butenyloxy)phenyl]-1H-pyrrol-1-ol-2,5-dione] | 28.92±5.3% | 3.10±0.14 | 2.10±0.24 | not significantly thickened
